The text below walks through data of ChEMBL document CHEMBL1201862, “PubChem BioAssay data set” (2004).

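Protocol summary: plate cells (96-well), add compound at 5 concentrations, incubate 48 h, interpolate endpoints linearly. GI50 = concentration required for 50% inhibition of growth.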 Calls of active or inactive are those of the source. Cut-off read from the data, not from the text of the source: active = GI50 up to about 1.1 µM and inactive = higher.

Among the test systems are HCT-116; HCT-15; HOP-92; HT-29; NCI-H23; NCI-H460; NCI-H522; RPMI-8226; SF-295; SF-539; SN12C; SNB-75; SR; UACC-62; UO-31; SK-MEL-2; DU-145; MDA-MB-435; NCI/ADR-RES.
Experiment in all cases: growth of human tumour cells (NCI), 48 h

Consider `NC(=O)C12CC3CC(CC(Br)(C3)C1)C2`, for which the GI50 with HCT-116 was > 100 µM (inactive); in the assay with HCT-15 it was more than 100 µM; in the assay on HOP-92, > 100 µM (inactive); with HT-29, > 100 µM (inactive); in the assay with NCI-H23 it was > 100 µM (inactive); with NCI-H460, > 100 µM (inactive). Also, the GI50 with NCI-H522 was > 100 µM (inactive); with RPMI-8226, > 100 µM (inactive); with SF-295, > 100 µM (inactive); in the assay with SF-539, > 100 µM (inactive); in the assay on SN12C, > 100 µM (inactive); in the assay on SNB-75 it was 76.7 µM (inactive). The GI50 with SR, with UACC-62 and with UO-31 was > 100 µM (inactive) each time.

With `CN(C)c1n/c(=N/c2cccc(Cl)c2)ss1`, the GI50 with HCT-116 was 11.9 µM (inactive); in the assay with HCT-15 it was 14.5 µM; with HOP-92 it was 28.1 µM (inactive); in the assay with HT-29, 18.8 µM (inactive); with NCI-H23, 12.9 µM (inactive); in the assay with NCI-H460, 9.2 µM (inactive). Also, the GI50 is 1.16 µM (inactive) in the assay with NCI-H522; 0.951 µM (active) in the assay with RPMI-8226; 24.1 µM (inactive) in the assay with SF-295; 18.7 µM (inactive) in the assay with SF-539; 16.9 µM (inactive) in the assay on SK-MEL-2; 12.8 µM (inactive) in the assay with SN12C. Moreover, the GI50 in the assay with SNB-75 was 31 µM (inactive); in the assay on SR, 4.12 µM (inactive); with UACC-62, 10.8 µM (inactive); in the assay on UO-31, 38.4 µM (inactive).

As to `Cc1nc2c(n1C(C)(C)C)C(=O)c1ccccc1C2=O`, the GI50 was 54 µM (inactive) in the assay on HCT-116; 56.6 µM in the assay with HCT-15; 9.31 µM (inactive) with HOP-92; 44.1 µM (inactive) with HT-29; 37.8 µM (inactive) with NCI-H23; 36.7 µM (inactive) in the assay on NCI-H460. Moreover, the GI50 in the assay on NCI-H522 was 44 µM (inactive); with SF-295, 87.3 µM (inactive); in the assay on SF-539, > 100 µM (inactive); in the assay on SK-MEL-2 it was 80.4 µM (inactive); with SN12C, 50.5 µM (inactive); in the assay on SNB-75 it was 31.9 µM (inactive). Besides, the GI50 in the assay with SR is 45 µM (inactive); with UACC-62, 44.3 µM (inactive); with UO-31 it was 37.2 µM (inactive).

Take `O=C1c2ccccc2C(=O)c2c1ccc1c3ccccc3n(Cc3ccccc3)c21`: the GI50 in the assay on HCT-116 is > 100 µM (inactive); with HCT-15, more than 100 µM; with HOP-92, 26.2 µM (inactive); in the assay on HT-29, > 100 µM (inactive); with NCI-H460 it was 88.9 µM (inactive); in the assay with NCI-H522, > 100 µM (inactive). For the same compound, the GI50 is > 100 µM (inactive) in the assay with RPMI-8226; > 100 µM (inactive) with SF-295; > 100 µM (inactive) in the assay on SF-539; > 100 µM (inactive) in the assay with SK-MEL-2; > 100 µM (inactive) with SN12C; 2.35 µM (inactive) with SNB-75. For the same compound, the GI50 in the assay on SR, in the assay on UACC-62 and in the assay on UO-31 was > 100 µM (inactive) each time.

For the compound `C[C@@H](O)CCC(=O)c1ccoc1`, the GI50 is > 100 µM (inactive) with HCT-116; more than 100 µM in the assay on HCT-15; > 100 µM (inactive) in the assay with HOP-92; > 100 µM (inactive) in the assay with HT-29; > 100 µM (inactive) in the assay on NCI-H23; > 100 µM (inactive) in the assay with NCI-H460. Moreover, the GI50 in the assay with NCI-H522, with RPMI-8226, with SF-295, with SF-539, with SK-MEL-2 and in the assay on SN12C was > 100 µM (inactive) throughout. The GI50 with SNB-75 is > 49.2 µM (inactive); in the assay with SR it was > 84.3 µM (inactive); in the assay with UACC-62, > 100 µM (inactive); with UO-31, > 100 µM (inactive).

As to `O=c1[nH]c(-c2ccc(-c3nc4cc([N+](=O)[O-])ccc4c(=O)[nH]3)cc2)nc2cc([N+](=O)[O-])ccc12`, the GI50 is > 100 µM (inactive) with HCT-116; more than 100 µM in the assay on HCT-15; > 100 µM (inactive) with HOP-92; > 100 µM (inactive) in the assay with HT-29; > 100 µM (inactive) with NCI-H23; > 100 µM (inactive) in the assay with NCI-H460. The GI50 with NCI-H522, in the assay with RPMI-8226, in the assay with SF-295, in the assay on SF-539, in the assay with SK-MEL-2 and in the assay on SN12C was > 100 µM (inactive) each time. In addition, the GI50 was 42.1 µM (inactive) in the assay on SNB-75, > 100 µM (inactive) in the assay with SR, > 100 µM (inactive) in the assay on UACC-62 and > 100 µM (inactive) in the assay with UO-31.

With `CC(C)[C@H]1CO[C@]2(C)[C@@H]3CN(Cc4ccccc4)C[C@@H]3C(=O)N12`, the GI50 with HCT-116 is > 100 µM (inactive); with HCT-15, more than 100 µM; in the assay with HOP-92, 74.5 µM (inactive); with HT-29, > 100 µM (inactive); in the assay with NCI-H23, > 100 µM (inactive); in the assay on NCI-H460 it was > 100 µM (inactive). Moreover, the GI50 with NCI-H522, with RPMI-8226, in the assay with SF-295, in the assay with SF-539, with SK-MEL-2 and in the assay on SN12C was > 100 µM (inactive) in each case. The GI50 in the assay on SNB-75, in the assay with SR, in the assay on UACC-62 and with UO-31 was > 100 µM (inactive) each time.

`COc1cc(Nc2nc3cc(C)ccc3nc2-c2ccccc2)cc(OC)c1OC`: the GI50 with HCT-116 is 19.9 µM (inactive); in the assay with HCT-15, 15.5 µM; in the assay on HOP-92, 23.2 µM (inactive); with HT-29 it was 14.8 µM (inactive); in the assay on NCI-H23, 22.8 µM (inactive); in the assay on NCI-H460 it was 15.8 µM (inactive). Moreover, the GI50 in the assay on NCI-H522 was 25.6 µM (inactive); with SF-295, 20.9 µM (inactive); in the assay on SK-MEL-2 it was 23 µM (inactive); with SN12C, 28.7 µM (inactive); with SNB-75, 22.7 µM (inactive); in the assay on SR, 16.2 µM (inactive). Moreover, the results for the GI50 with UACC-62 and with UO-31 were 21.5 µM (inactive) and 17.2 µM (inactive), respectively.

Regarding `COC(=O)C1(CCCCl)CCCN1C(=O)OC(C)(C)C` (configuration not stated), the GI50 in the assay on DU-145 is > 100 µM (inactive); in the assay with HCT-116 it was > 100 µM (inactive); in the assay with HCT-15, more than 100 µM; with HT-29 it was > 100 µM (inactive); in the assay with MDA-MB-435 it was > 100 µM (inactive); in the assay on NCI-H23 it was > 100 µM (inactive). Further, the GI50 with NCI-H460, in the assay with NCI/ADR-RES, with SF-295, in the assay on SK-MEL-2, in the assay with SN12C and in the assay on SNB-75 was > 100 µM (inactive) in each case. The GI50 in the assay on SR is 10.5 µM (inactive); in the assay on UACC-62, > 100 µM (inactive); with UO-31, > 100 µM (inactive).

With `COC(=O)n1c(C[P+](c2ccccc2)(c2ccccc2)c2ccccc2)cc2ccccc21`, the GI50 with HCT-116 was 1.11 µM (active); in the assay on HCT-15, 13.3 µM; with HOP-92 it was 0.0318 µM (active); with HT-29 it was 1.75 µM (inactive); in the assay with NCI-H23, 1.86 µM (inactive); in the assay on NCI-H460, 1.43 µM (inactive). Also, the GI50 in the assay with NCI-H522 is 1 µM (active); in the assay with RPMI-8226, 0.352 µM (active); in the assay with SF-295, 2.29 µM (inactive); in the assay with SF-539, 3.17 µM (inactive); in the assay on SK-MEL-2 it was 0.661 µM (active); with SN12C it was 2.26 µM (inactive). In addition, the GI50 with SNB-75 was 3.94 µM (inactive); in the assay on SR it was 2.67 µM (inactive); in the assay on UACC-62 it was 2.77 µM (inactive); in the assay with UO-31 it was 0.604 µM (active).

Turning to `CC(C)(C)c1cc2c(OP(c3ccccc3)c3ccccc3)c(c1)Cc1cc(C(C)(C)C)cc(c1OP(c1ccccc1)c1ccccc1)Cc1cc(C(C)(C)C)cc(c1OP(c1ccccc1)c1ccccc1)Cc1cc(C(C)(C)C)cc(c1OP(c1ccccc1)c1ccccc1)C2`, the GI50 was > 5 µM (inactive) in the assay on HCT-116; more than 5 µM in the assay with HCT-15; > 5 µM (inactive) with HOP-92; > 5 µM (inactive) with HT-29; > 5 µM (inactive) in the assay with NCI-H23; > 5 µM (inactive) with NCI-H460. Moreover, the GI50 in the assay on NCI-H522, in the assay on RPMI-8226, with SF-295, with SF-539, in the assay on SK-MEL-2 and with SN12C was > 5 µM (inactive) throughout. Also, the GI50 is > 5 µM (inactive) in the assay on SNB-75, 2.66 µM (inactive) with SR, > 5 µM (inactive) with UACC-62 and > 5 µM (inactive) with UO-31.

On to `CN(C)/N=N/c1nc2c(c(=O)n(C)c(=O)n2C)n1CC1CO1` (configuration not stated), for which the GI50 in the assay on DU-145 is 14.4 µM (inactive); in the assay on HCT-116, 11.7 µM (inactive); in the assay on HCT-15, 14.2 µM; in the assay with HT-29 it was 13.6 µM (inactive); in the assay on MDA-MB-435 it was 16.7 µM (inactive); with NCI-H23, 12.2 µM (inactive). Moreover, the GI50 in the assay on NCI-H460 was 10.1 µM (inactive); with NCI-H522, 14.1 µM (inactive); in the assay with NCI/ADR-RES it was 16.6 µM (inactive); in the assay on RPMI-8226, 23.8 µM (inactive); in the assay with SF-295 it was 17 µM (inactive); in the assay with SF-539, 7.1 µM (inactive). Also, the GI50 in the assay on SK-MEL-2 is 10.7 µM (inactive); in the assay with SN12C, 15.7 µM (inactive); with SNB-75 it was 11.7 µM (inactive); with UACC-62, 12.4 µM (inactive); with UO-31, 14.5 µM (inactive).

In the case of `O=C(O)c1ccccc1C(=O)c1ccco1`, the GI50 with HCT-116 was > 100 µM (inactive); in the assay with HCT-15 it was more than 100 µM; in the assay with HOP-92, > 100 µM (inactive); in the assay with HT-29 it was > 100 µM (inactive); in the assay with NCI-H23, > 100 µM (inactive); with NCI-H460 it was > 100 µM (inactive). Besides, the GI50 in the assay with NCI-H522, in the assay with SF-295, with SF-539, with SK-MEL-2, with SN12C and in the assay with SNB-75 was > 100 µM (inactive) in each case. Also, the GI50 in the assay with SR, in the assay on UACC-62 and in the assay with UO-31 was > 100 µM (inactive) in each case.
